From article PMC9283466, “In silico identification of two peptides with antibacterial activity against multidrug-resistant Staphylococcus aureus” (NPJ Biofilms and Microbiomes, 2022) come the findings set out here.

The subject of one test is Ent. faecalis JH2-2. Put plainly: microbe, parasite or virus in culture. It counts as cell-based, Enterococcus faecalis. As to the method: (§1) To determine the antimicrobial activity of the new antimicrobial peptides, HG2 and HG4, their minimum inhibitory concentrations (MICs) were determined by broth microdilution method[51] in cation adjusted Mueller Hinton broth (MHB) following the International Organisation for Standardisation (ISO) 20776-1 standard for MIC testing using a final bacterial inoculum of 5 × 10^5 CFU/ml[52]. […] The peptides dissolved in sterile distilled water were added to bacteria culture and incubated overnight at appropriate conditions. The MICs of the peptides and comparator antibiotics were recorded after 18–24 h. The minimum bactericidal concentrations (MBCs) were also determined and were taken as the lowest concentration of the antimicrobial that prevented the growth of bacterial cells after the subculture of cells (from MIC treatment) onto antibiotic-free media.

Test [1] is described as follows: Pure lipid preference order from critical pressure of insertion. It counts as binding. The following applies: pure bacterial and eukaryotic lipids. As to the method: Peptide–lipid interaction was measured using a lipid monolayer formed at the air:water interface with total lipid extracts and pure lipids. Total lipids were extracted from overnight cultures of MRSA or human erythrocytes using the Folch extraction procedure[14],[40]. Extracted total lipids were dried, re-solubilised in chloroform:methanol (2:1, v/v) and stored at −20 °C under nitrogen. […] The variation of the surface pressure caused by peptide insertion was then continuously monitored using a fully automated microtensiometer (µTROUGH SX, Kibron Inc, Finland) until it reached equilibrium (maximal surface pressure increase is usually obtained after 15–25 min). […] In other experiments, the critical pressure of insertion of HG2 or HG4 in the total lipid extracts and pure lipids was measured as follows[14],[56]. Briefly, in these experiments, the initial pressure of the lipid monolayer was set up at different values (between 10 and 30 mN/m) and the variation of pressure caused by the injection of the peptide was measured. […] All experiments were carried out in a controlled atmosphere at 20 ± 1 °C and data were analyzed using the Firmware 2.5 programme (Kibron Inc.). The accuracy of the system under our experimental conditions was determined to be ±0.25 mN/m for surface pressure measurements.

The test system of the next test is Sal. typhimurium SL1344. Put plainly: microbe, parasite or virus in culture. It counts as cell-based, Salmonella enterica serovar Typhimurium. As to the method: as §1
The subject of a further test is Ent. faecalis. Put plainly: microbe, parasite or virus in culture. It counts as cell-based, Enterococcus faecalis. The settings on record: Ent. faecalis; Supplementary Table 5. As to the method: as §1
The subject of another test is List. monocytogenes. Put plainly: microbe, parasite or virus in culture. It counts as cell-based, Listeria monocytogenes. How it is done: as §1
Test [2] has as its system L. monocytogenes NCTC 11994. Put plainly: microbe, parasite or virus in culture. The settings on record: NCTC 11994. The test is classed as cell-based, Listeria monocytogenes. How it is done: as §1
For the next test, the system named is P. aeruginosa. Put plainly: microbe, parasite or virus in culture. The test is classed as cell-based, Pseudomonas aeruginosa. In outline: (§2)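 Following ISO 20776-1, strains at 5 × 10^5 CFU/ml in cation-adjusted broth were exposed to water-dissolved peptides overnight, and MIC was scored at 18–24 h. Bactericidal endpoint: no growth after transfer to antibiotic-free media.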

The next test has as its system Sal. typhimurium. Put plainly: microbe, parasite or virus in culture. It counts as cell-based, Salmonella enterica serovar Typhimurium. The settings on record: Sal. typhimurium; Supplementary Table 5. How it is done:
as §1

The next test deals with EMRA-15. Put plainly: microbe, parasite or virus in culture. The test is classed as cell-based, Staphylococcus aureus. The method, boiled down: as §2

In brackets after ≈: the same amount, converted by molar mass. Bridge positions count the residues as written; N and C are the ends. Peptide text beside a SMILES is read from it.

On to `CC[C@H](C)[C@H](NC(=O)[C@H](CC(C)C)NC(=O)[C@H](CC(C)C)NC(=O)[C@H](CC(C)C)NC(=O)[C@H](CCCCN)NC(=O)[C@H](CCCCN)NC(=O)[C@@H](N)CCSC)C(=O)N[C@@H](CC(C)C)C(=O)N[C@@H](Cc1ccccc1)C(=O)N[C@H]1CSSC[C@@H](C(=O)N[C@@H](CCCCN)C(=O)N[C@@H](CCCCN)C(=O)N[C@@H](C)C(=O)N2CCC[C@H]2C(N)=O)NC(=O)CNC(=O)[C@H](C)NC(=O)[C@H](CC(C)C)NC(=O)[C@H](C)NC(=O)[C@H](CC(C)C)NC(=O)[C@H](C)NC(=O)[C@H](CC(C)C)NC1=O` [HG2] (H-MKKLLLILFCLALALAGCKKAP-NH2; disulfide 10-18; N-terminus assumed), for which the MIC against Ent. faecalis JH2-2 and against Sal. typhimurium SL1344 was 256 µg/mL (≈ 109 µM) each time. The “order of preference for pure lipids (critical pressure of insertion)” value in test [1] was “PC > PG > LTA > Cardio > PE > LPS”.
Take `CC[C@H](C)[C@H](NC(=O)[C@H](CC(C)C)NC(=O)[C@H](CC(C)C)NC(=O)[C@H](C)NC(=O)CNC(=O)CNC(=O)[C@@H](NC(=O)[C@@H](NC(=O)[C@H](CC(C)C)NC(=O)[C@H](C)NC(=O)[C@H](CC(C)C)NC(=O)CNC(=O)[C@H](CC(C)C)NC(=O)[C@@H](N)C(C)C)[C@@H](C)CC)C(C)C)C(=O)N[C@@H](CCCCN)C(=O)N[C@@H](CCCCN)C(=O)N[C@@H](CCCCN)C(=O)N[C@@H](CCC(N)=O)C(=O)N[C@@H](C)C(=O)N[C@@H](CCCCN)C(=O)N[C@@H](CO)C(N)=O` [HG4] (H-VLGLALIVGGALLIKKKQAKS-NH2; N-terminus and C-terminus assumed): the “Minimum inhibitory Concentrations MICs” value in the test on Ent. faecalis was 128 µg/mL; in the test with List. monocytogenes, 512 µg/mL; in the test on P. aeruginosa, at least 1024 µg/mL; with Sal. typhimurium, 512 µg/mL; in the test with EMRA-15 it was 32 µg/mL. Further, the MIC in [2] was 512 µg/mL (≈ 242 µM). Moreover, the “order of preference for pure lipids (critical pressure of insertion)” value in test [1] is given as “PG > cardiolipin > LTA > LPS > PE > PC”.
